Earlier results in patent publication US8865899B2 (AstraZeneca AB, priority 2006, dated 2014).

How the values were obtained:
VEGF RTK = settings: statement in words, background
tumour models = settings: once-daily oral administration; Wedge et al, Proc. Am. Assoc. Canc. Res. 2001; 42: abstract 3126

COc1cc2c(Nc3ccc(Br)cc3F)ncnc2cc1OCC1CCN(C)CC1 [ZD6474, 4-(4-bromo-2-fluoroanilino)-6-methoxy-7-(1-methylpiperidin-4-ylmethoxy)quinazoline]
inhibition of VEGF RTK (VEGF RTK): potent inhibitor | anti-tumour activity (tumour models): broad-spectrum anti-tumour activity
